From US20110144323A1, “AMORPHOUS AND CRYSTALLINE FORMS OF SMILAGENIN AND ITS HYDRATES” (PHYTOPHARM PLC, priority 2004, published 2011)

Assay: Vapour sorption studies
Format: physicochemical
Excerpt: As is well known, a channel hydrate is a hydrate in which the crystal lattice of the molecule forms a channel or cage enclosing a void which can wholly or partially accommodate water (or solvent) molecules. The stoichiometric (molar) ratio of smilagenin:water at any particular time will depend on such factors as the humidity of the surrounding atmosphere, as the water molecules are generally free to enter or leave the void.

## C[C@@H]1CC[C@@]2(OC1)O[C@H]1C[C@H]3[C@@H]4CC[C@@H]5C[C@@H](O)CC[C@]5(C)[C@H]4CC[C@]3(C)[C@H]1[C@@H]2C [Crystalline Form VI, smilagenin]
FIG. 11
  hygroscopicity in vapour sorption study: hygroscopic
At high humidity, i.e. a dihydrate
  water adsorbed, molar equivalents: about 2 mol. eq. water
At high humidity, water reversibly lost at low humidity (FIG. 11)
  water adsorbed in vapour sorption study: up to 9 % water
